# Experimental data taken from patent US11420961B2, “Heterocyclic compounds” (Hoffmann-La Roche Inc., priority 2017, dated 2022).
# Target: T1, MAGL (Homo sapiens, UniProt Q99685)
# T1 sequence (Q99685 1-303): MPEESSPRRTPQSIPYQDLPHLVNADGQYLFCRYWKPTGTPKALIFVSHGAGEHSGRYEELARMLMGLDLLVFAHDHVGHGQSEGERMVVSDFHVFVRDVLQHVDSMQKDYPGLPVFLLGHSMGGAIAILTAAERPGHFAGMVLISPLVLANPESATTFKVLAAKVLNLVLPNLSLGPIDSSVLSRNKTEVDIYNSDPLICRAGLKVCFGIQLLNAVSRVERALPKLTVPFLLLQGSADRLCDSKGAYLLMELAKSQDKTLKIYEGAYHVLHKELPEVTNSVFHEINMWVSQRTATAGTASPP
# Assay: 2-AG assay: MAGL inhibitory activity by hydrolysis of 2-arachidonoylglycerol to arachidonic acid, mass spectrometry
# Format: biochemical
# Settings: 2-AG assay (values marked [a])
# Description: Alternatively, compounds were profiled for MAGL inhibitory activity by determining the enzymatic activity by following the hydrolysis of the natural substrate, 2-arachidonoylglycerol, resulting in arachidonic acid, which can be followed by mass spectrometry. This assay is hereinafter abbreviated “2-AG assay”.
# The 2-AG assay was carried out in 384 well assay plates (PP, Greiner Cat #784201) in a total volume of 20 μL. Compound dilutions were made in 100% DMSO (VWR Chemicals 23500.297) in a polypropylene plate in 3-fold dilution steps to give a final concentration range in the assay from 12.5 μM to […]. 0.25 μL compound dilutions (100% DMSO) were added to 9 μL MAGL in assay buffer (50 mM TRIS (GIBCO, 15567-027), 1 mM EDTA (Fluka, 03690-100 ml), 0.01% (v/v) Tween. After shaking, the plate was incubated for 15 min at RT. To start the reaction, 10 μL 2-arachidonoylglycerol in assay buffer was added. The final concentrations in the assay was […] and 8 μM 2-arachidonoylglyerol. After shaking and 30 min incubation at RT, the reaction was quenched by the addition of 40 μL of acetonitrile containing 4 μM of d8-arachidonic acid. The amount of arachidonic acid was traced by an online SPE system (Agilent Rapidfire) coupled to a triple quadrupole mass spectrometer (Agilent 6460). A C18 SPE cartridge (G9205A) was used in an acetonitrile/water liquid setup. The mass spectrometer was operated in negative electrospray mode following the mass transitions 303.1→259.1 for arachidonic acid and 311.1→267.0 for d8-arachidonic acid. The activity of the compounds was calculated based on the ratio of intensities [arachidonic acid/d8-arachidonic acid].
row,Compound,IC50 [nM]
1,"COc1cc(C(c2ccccc2)C2CCN(C(=O)c3ccc4c(c3)NC(=O)CO4)CC2)ccc1OCCF (single isomer, unassigned) [Example 139, 6-[4-[(R or S)-[4-(2-Fluoroethoxy)-3-methoxy-phenyl]-phenyl-methyl]piperidine-1-carbonyl]-4H-1,4-benzoxazin-3-one]",0.17
2,"Cn1cc(C(c2ccccc2)C2CCN(C(=O)c3ccc4c(c3)NC(=O)CO4)CC2)cn1 (single isomer, unassigned) [Example 140, 6-[4-[(S or R)-(1-Methylpyrazol-4-yl)-phenyl-methyl]piperidine-1-carbonyl]-4H-1,4-benzoxazin-3-one]",0.62
3,"Cn1cc(C(c2ccccc2)C2CCN(C(=O)c3ccc4c(c3)NC(=O)CO4)CC2)cn1 (single isomer, unassigned) [Example 141, 6-[4-[(R or S)-(1-Methylpyrazol-4-yl)-phenyl-methyl]piperidine-1-carbonyl]-4H-1,4-benzoxazin-3-one]",6.68
4,"Cn1ccc(C(c2ccccc2)C2CCN(C(=O)c3ccc4c(c3)NC(=O)CO4)CC2)cc1=O (single isomer, unassigned) [Example 142, 6-[4-[(S or R)-(1-Methyl-2-oxo-4-pyridyl)-phenyl-methyl]piperidine-1-carbonyl]-4H-1,4-benzoxazin-3-one]",0.66
5,"O=C1COc2ccc(C(=O)N3CC(C(c4ccccc4)c4ccccc4)C3)cc2N1 [Example 124, 6-(3-Benzhydrylazetidine-1-carbonyl)-4H-1,4-benzoxazin-3-one]",258
6,"O=C1COc2ccc(C(=O)N3CC(C(c4ccccc4)c4ccc(C(F)(F)F)cc4)C3)cc2N1 (stereo not drawn) [Example 130, 6-[3-[Phenyl-[4-(trifluoromethyl)phenyl]methyl]azetidine-1-carbonyl]-4H-1,4-benzoxazin-3-one]",85.3

# More lines, in order of falling IC50, values ahead:
row,IC50 [nM],Compound
1,182,"COc1cccc(C(c2ccccc2)C2CN(C(=O)c3ccc4c(c3)NC(=O)CO4)C2)c1 (stereo not drawn) [Example 131, 6-[3-[(3-Methoxyphenyl)-phenyl-methyl]azetidine-1-carbonyl]-4H-1,4-benzoxazin-3-one]"
2,79.3,"Cn1ccc(C(c2ccccc2)C2CCN(C(=O)c3ccc4c(c3)NC(=O)CO4)CC2)cc1=O (single isomer, unassigned) [Example 143, 6-[4-[(R or S)-(1-Methyl-2-oxo-4-pyridyl)-phenyl-methyl]piperidine-1-carbonyl]-4H-1,4-benzoxazin-3-one]"
3,9.41,"COc1cc(C(c2ccccc2)C2CCN(C(=O)c3ccc4c(c3)NC(=O)CO4)CC2)ccc1OCCF (single isomer, unassigned) [Example 138, 6-[4-[(S or R)-[4-(2-Fluoroethoxy)-3-methoxy-phenyl]-phenyl-methyl]piperidine-1-carbonyl]-4H-1,4-benzoxazin-3-one]"
